Values after ≈ are worked out from the molar mass of the structure shown.
What was measured:
Assay type in all cases: functional, cell-based
[1] = Cytotoxicity against human vincristine-sensitive KB/S cells
[2] = Cytotoxicity against human vincristine-resistant KB/VJ300 cells
[3] = Cytotoxicity against human vincristine-resistant KB/VJ300 cells in presence of vincristine

Row | Compound | IC50 [1] | IC50 [2] | IC50 [3]
1 | COC(=O)C1=C2Nc3ccccc3[C@@]23CCN2C[C@H]([C@@H](C)O)[C@@H]1C[C@H]23 | > 25 µg/mL | > 25 µg/mL | 5.12 µg/mL
2 | COC(=O)C1=C2Nc3ccccc3[C@@]23CCN2C[C@H]([C@H](C)O)[C@@H]1C[C@H]23 | > 25 µg/mL | > 25 µg/mL | 8.35 µg/mL
3 | COC(=O)C1=C2Nc3c(OC)cccc3[C@@]23CCN2C[C@H]([C@@H](C)O)[C@@H]1C[C@H]23 | > 25 µg/mL | > 25 µg/mL | 10.6 µg/mL
4 | C=C[C@@]12CNCC[C@@H]1[C@](C(=O)OC)(c1cc3ccccc3[nH]1)CO2 | > 25 µg/mL | > 25 µg/mL | > 25 µg/mL
5 | C/C=C1/CN2CC[C@]34C(=C(C(=O)OC)[C@H]1C[C@H]23)Nc1ccccc14 [AKUAMMICINE] | > 25 µg/mL | > 25 µg/mL | 12.3 µg/mL
6 | C=C[C@@]12CN(C(=O)OCC)CC[C@@H]1[C@](C(=O)OC)(c1cc3ccccc3[nH]1)CO2 [ALSTOLOBINE A] | > 25 µg/mL | > 25 µg/mL | 3.51 µg/mL
7 | CCOC(=O)O[C@H](C)[C@H]1CN2CC[C@]34C(=C(C(=O)OC)[C@H]1C[C@H]23)Nc1ccccc14 [ALSTOLUCINE A] | > 25 µg/mL | > 25 µg/mL | 0.59 µg/mL
8 | COC(=O)C1=C2Nc3ccccc3[C@@]23CCN2C[C@@H](C(C)=O)[C@@H]1C[C@H]23 [ALSTOLUCINE B] | > 25 µg/mL | > 25 µg/mL | 0.64 µg/mL
9 | COC(=O)C1=C2Nc3ccccc3[C@@]23CC[N+]2([O-])C[C@@H](C(C)=O)[C@@H]1C[C@@H]32 (some centres not stated) [ALSTOLUCINE C] | > 25 µg/mL | > 25 µg/mL | > 25 µg/mL
10 | COC(=O)C1=C2Nc3c(O)cccc3[C@@]23CCN2C[C@@H](C(C)=O)[C@@H]1C[C@H]23 [ALSTOLUCINE D] | > 25 µg/mL | > 25 µg/mL | 10.3 µg/mL
11 | COC(=O)C1=C2Nc3c(O)cccc3[C@@]23CCN2C[C@H](C(C)=O)[C@@H]1C[C@H]23 [ALSTOLUCINE E] | > 25 µg/mL | > 25 µg/mL | 19.2 µg/mL
12 | COC(=O)C1=C2Nc3ccccc3[C@@]23CCN2C[C@H](C(C)=O)[C@@H]1C[C@H]23 [ALSTOLUCINE F] | > 25 µg/mL | > 25 µg/mL | 2.61 µg/mL
13 | COC(=O)C1=C2Nc3c(O)cccc3[C@@]23CCN2C[C@@H]([C@H](C)O)[C@@H]1C[C@H]23 [SCHOLARICINE] | > 25 µg/mL | 13.3 µg/mL (≈ 37.5 µM) | 1.15 µg/mL
14 | C/C=C1/CN2CC[C@]34C(=C(C(=O)O)[C@H]1C[C@H]23)Nc1ccccc14 [VINERVINE] | > 25 µg/mL | > 25 µg/mL | 12.1 µg/mL
